# What was measured:
# [1] = Volatility of perfuming compounds (Tables 4 to 10), with top/middle/bottom note type; format: physicochemical
# Procedure, shortened: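 Note type follows from air volatility (μg/l): bottom 49–0.1, middle 99–50, top 70,000–100. Compounds are listed within watery, green, fruity, citrus, sweet, gourmand and woody families.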
# [2] = Odor threshold and odor value of perfuming compounds (Tables 4 to 10)
# [3] = Table 8, perfuming compounds having a sweet note
# [4] = Table 8, perfuming compounds having a sweet note, note type by volatility
# [5] = Table 6, perfuming compounds having a fruity note
# [6] = Table 6, perfuming compounds having a fruity note, note type by volatility
# [7] = Table 9, perfuming compounds having a gourmand note, note type by volatility
# [8] = Table 7, citrus note, top, middle or bottom note
# [9] = Table 7, citrus note, equals volatility divided by odor threshold
# [10] = Table 4, watery note, top, middle or bottom note
# [11] = Table 4, watery note, equals volatility divided by odor threshold
# [12] = Table 10, perfuming compounds having a woody note, note type by volatility
# [13] = note type (Top/Middle/Bottom) by volatility, perfuming compounds having a green note
# [14] = perfuming compounds having a green note
structure (smiles),measurement,setting,value
CCCC1CCC(=O)O1 (racemic) [(+−)-4-HEPTANOLIDE],Volatility,[1]; [3],295.34 μg/l air
same,Type,[1]; [4],Top
same,Odor Threshold,[2]; [3],5.18E−04 μg/l air
same,Odor Value,[2]; [3],5.70E+05
CCCCCC1CCC(=O)O1 (racemic) [(+−)-4-NONANOLIDE],Volatility,[1]; [5],27.42 μg/l air
same,Type,[1]; [6],Bottom
same,Volatility,"[1]; Table 9, gourmand note",27.42 μg/l air
same,Type,[1]; [7],Bottom
same,Odor Threshold,[2]; [5],1.45E−04 μg/l air
same,Odor Value,[2]; [5],1.89E+05
same,Odor Threshold,"[2]; Table 9, gourmand note",1.45E−04 μg/l air
CCCCCCCCC1CCC(=O)O1 (racemic) [(+−)-5-octyldihydro-2(3H)-furanone],Volatility,[1]; [5],1.44 μg/l air
same,Type,[1]; [6],Bottom
same,Odor Threshold,[2]; [5],2.85E−05 μg/l air
same,Odor Value,[2]; [5],5.05E+04
CCCCCCCC1CCCC(=O)O1 (racemic) [(+−)-6-heptyltetrahydro-2H-pyran-2-one],Volatility,[1]; [5],0.90 μg/l air
same,Type,[1]; [6],Bottom
same,Volatility,[1]; [3],0.90 μg/l air
same,Type,[1]; [4],Bottom
same,Volatility,"[1]; Table 9, gourmand note",0.90 μg/l air
same,Type,[1]; [7],Bottom
same,Odor Threshold,[2]; [5],1.27E−04 μg/l air
same,Odor Value,[2]; [5],7.06E+03
same,Odor Threshold,[2]; [3],1.27E−04 μg/l air
same,Odor Value,[2]; [3],7.06E+03
same,Odor Threshold,"[2]; Table 9, gourmand note",1.27E−04 μg/l air
CCCCCC1CCCC(=O)O1 (racemic) [(+−)-6-pentyltetrahydro-2H-pyran-2-one],Volatility,[1]; [5],9.61 μg/l air
same,Type,[1]; [6],Bottom
same,Volatility,[1]; [3],9.61 μg/l air
same,Type,[1]; [4],Bottom
same,Volatility,"[1]; Table 9, gourmand note",9.61 μg/l air
same,Type,[1]; [7],Bottom
same,Odor Threshold,[2]; [5],3.72E−05 μg/l air
same,Odor Value,[2]; [5],2.58E+05
same,Odor Threshold,[2]; [3],3.72E−05 μg/l air
same,Odor Value,[2]; [3],2.58E+05
same,Odor Threshold,"[2]; Table 9, gourmand note",3.72E−05 μg/l air
CCCC1CCCC(=O)O1 (racemic) [(+−)-6-propyltetrahydro-2H-pyran-2-one],Volatility,[1]; [5],57.43 μg/l air
same,Type,[1]; [6],Middle
same,Volatility (μg/l air),"[1]; Table 7, citrus note",57.43 μg/l air
same,Type,[1]; [8],Middle
same,Odor Threshold,[2]; [5],2.17E−04 μg/l air
same,Odor Value,[2]; [5],2.65E+05
same,Odor Threshold (μg/l air),"[2]; Table 7, citrus note",2.17E−04 μg/l air
same,Odor Value,[2]; [9],2.65E+05
"CC(CC=O)CCCC(C)(C)O (racemic) [(+−)-7-hydroxy-3,7-dimethyloctanal]",Volatility (μg/l air),"[1]; Table 4, watery note",12.81 μg/l air
same,Type,[1]; [10],bottom (perfuming compounds having a volatility ranging from 49 to 0.1 μg/l in air are referred to as “bottom notes”)
same,Odor Threshold (μg/l air),"[2]; Table 4, watery note",6.98E−03 μg/l air
same,Odor Value,[2]; [11],1.84E+03
CO[C@]1(C)CC[C@@]23C[C@@H]1C(C)(C)[C@@H]2CC[C@H]3C (racemic) [(+−)-8-methoxycedrane],Type,[1]; [12],Bottom
same,Volatility,"[1]; Table 10, woody note",42.22 μg/l air
same,Odor Threshold,"[2]; Table 10, woody note",2.09E−02 μg/l air
CCOC(C)OC1CCCCCCCCCCC1 (racemic) [(+−)-(1-ethoxyethoxy)cyclododecane],Type,[1]; [12],Bottom
same,Volatility,"[1]; Table 10, woody note",5.04 μg/l air
same,Odor Threshold,"[2]; Table 10, woody note",2.51E−02 μg/l air
COCC(C)Cc1ccccc1 (racemic) [(+−)-(3-methoxy-2-methylpropyl)benzene],Volatility,[1]; [5],587.76 μg/l air
same,Type,[1]; [6],"TOP (perfuming compounds having a volatility ranging from 70,000 to 100 μg/l in air are referred to as “top notes”)"
same,Volatility (μg/l air),"[1]; Table 7, citrus note",587.76 μg/l air
same,Type,[1]; [8],Top
same,Type,[1]; [13],Top
same,Volatility (μg/l air),[1]; [14],587.76 μg/l air
same,Odor Threshold (μg/l air),"[2]; Table 7, citrus note",1.51E−02 μg/l air
same,Odor Value,[2]; [9],3.89E+04
same,Odor Threshold (μg/l air),[2]; [14],1.51E−02 μg/l air
CC/C=C(\C)C(O)CCCCC (racemic) [(+−)-(E)-4-METHYL-3-DECEN-5-OL],Volatility,[1]; [5],64.15 μg/l air
same,Type,[1]; [6],Middle
same,Type,[1]; [13],Middle
same,Volatility (μg/l air),[1]; [14],64.15 μg/l air
same,Odor Threshold,[2]; [5],6.78E−04 μg/l air
same,Odor Value,[2]; [5],9.46E+04
same,Odor Threshold (μg/l air),[2]; [14],6.78E−04 μg/l air
CC1=CCC(C(C)(C)O)CC1 (racemic) [(+−)-ALPHA-TERPINEOL],Type,[1]; [12],Top
same,Volatility,"[1]; Table 10, woody note",172.78 μg/l air
same,Odor Threshold,"[2]; Table 10, woody note",1.03E−01 μg/l air
CCOC(=O)C(=O)C(C)CC (racemic) [(+−)-ETHYL 3-METHYL-2-OXOPENTANOATE],Volatility,[1]; [3],2276.17 μg/l air
same,Type,[1]; [4],Top
same,Type,[1]; [13],Top
same,Volatility (μg/l air),[1]; [14],2276.17 μg/l air
same,Odor Threshold,[2]; [3],5.06E−04 μg/l air
same,Odor Value,[2]; [3],4.50E+06
same,Odor Threshold (μg/l air),[2]; [14],5.06E−04 μg/l air
CCC(C)C(=O)OC(C)C (racemic) [(+−)-ISOPROPYL 2-METHYLBUTANOATE],Volatility,[1]; [5],51367.63 μg/l air
same,Type,[1]; [6],"TOP (perfuming compounds having a volatility ranging from 70,000 to 100 μg/l in air are referred to as “top notes”)"
same,Volatility (μg/l air),"[1]; Table 7, citrus note",51367.63 μg/l air
same,Type,[1]; [8],Top
same,Odor Threshold (μg/l air),"[2]; Table 7, citrus note",8.42E−03 μg/l air
same,Odor Value,[2]; [9],6.10E+06
CC(C)CC1CC(C)(O)CCO1 (racemic) [(+−)-TETRAHYDRO-2-ISOBUTYL-4-METHYL-4(2H)-PYRANOL],Volatility (μg/l air),"[1]; Table 4, watery note",79.79 μg/l air
same,Type,[1]; [10],middle (perfuming compounds having a volatility ranging from 99 to 50 μg/l in air are referred to as “middle notes”)
same,Odor Threshold (μg/l air),"[2]; Table 4, watery note",1.35E−02 μg/l air
same,Odor Value,[2]; [11],5.91E+03
CCCCC[C@@H]1OC(=O)C[C@H]1C (racemic) [(+−)-TRANS-3-METHYL-4-NONANOLIDE],Volatility,[1]; [5],21.05 μg/l air
same,Type,[1]; [6],Bottom
same,Volatility,[1]; [3],21.05 μg/l air
same,Type,[1]; [4],Bottom
same,Volatility,"[1]; Table 9, gourmand note",21.05 μg/l air
same,Type,[1]; [7],Bottom
same,Odor Threshold,[2]; [5],8.33E−04 μg/l air
same,Odor Value,[2]; [5],2.53E+04
same,Odor Threshold,[2]; [3],8.33E−04 μg/l air
same,Odor Value,[2]; [3],2.53E+04
same,Odor Threshold,"[2]; Table 9, gourmand note",8.33E−04 μg/l air
CCOC(=O)C(C)CC (racemic) [(+−)-ethyl 2-methylbutanoate],Volatility,[1]; [5],83769.16 μg/l air
same,Type,[1]; [6],"TOP (perfuming compounds having a volatility ranging from 70,000 to 100 μg/l in air are referred to as “top notes”)"
same,Type,[1]; [13],Top
same,Volatility (μg/l air),[1]; [14],83769.16 μg/l air
same,Odor Threshold (μg/l air),[2]; [14],1.26E−04 μg/l air
CCCCC(CC)C(=O)OC (racemic) [(+−)-methyl 2-ethylhexanoate],Volatility,[1]; [5],6677.64 μg/l air
same,Type,[1]; [6],"TOP (perfuming compounds having a volatility ranging from 70,000 to 100 μg/l in air are referred to as “top notes”)"
same,Type,[1]; [12],Top
same,Volatility,"[1]; Table 10, woody note",6677.64 μg/l air
same,Odor Threshold,"[2]; Table 10, woody note",1.74E−01 μg/l air
"CCCCC[C@H]1C(=O)CC[C@@H]1CC(=O)OC (racemic) [methyl 2-((1RS,2RS)-3-oxo-2-pentylcyclopentyl)acetate]",Volatility (μg/l air),"[1]; Table 7, citrus note",2.12 μg/l air
same,Type,[1]; [8],Bottom
same,Odor Threshold (μg/l air),"[2]; Table 7, citrus note",5.77E−04 μg/l air
same,Odor Value,[2]; [9],3.67E+03
"CC1(C)C2C[C@H]3CCC(=O)C=C3[C@@H]1C2 (single isomer, unassigned; (+))",Type,[1]; [12],Bottom
same,Volatility,"[1]; Table 10, woody note",4.86 μg/l air
same,Odor Threshold,"[2]; Table 10, woody note",2.86E−05 μg/l air
"CCC(=O)OCC(C)(C)OC(C)C1CCCC(C)(C)C1 (single isomer, unassigned; (+))",Volatility,[1]; [5],4.39 μg/l air
same,Type,[1]; [6],Bottom
same,Odor Threshold,[2]; [5],3.69E−04 μg/l air
same,Odor Value,[2]; [5],1.19E+04
"CCCC(=O)OC(C)(C)Cc1ccccc1 [1,1-DIMETHYL-2-PHENYLETHYL BUTANOATE]",Volatility,[1]; [5],34.65 μg/l air
same,Type,[1]; [6],Bottom
same,Volatility,[1]; [3],34.65 μg/l air
same,Type,[1]; [4],Bottom
same,Volatility,"[1]; Table 9, gourmand note",34.65 μg/l air
same,Type,[1]; [7],Bottom
same,Odor Threshold,[2]; [5],2.68E−02 μg/l air
same,Odor Value,[2]; [5],1.29E+03
same,Odor Threshold,[2]; [3],2.68E−02 μg/l air
same,Odor Value,[2]; [3],1.29E+03
same,Odor Threshold,"[2]; Table 9, gourmand note",2.68E−02 μg/l air

# From patent US20240301319A1, “PERFUMING COMPOSITIONS” (FIRMNICH SA, priority 2017, published 2024)
